# Columns and labels:
# [1] = molecular target: T1, LYC1 (Yarrowia lipolytica, UniProt P41929); experiment: LC-MS of dansylated product; format: biochemical; settings: with acetyl-CoA
# T1 sequence (P41929 1-392): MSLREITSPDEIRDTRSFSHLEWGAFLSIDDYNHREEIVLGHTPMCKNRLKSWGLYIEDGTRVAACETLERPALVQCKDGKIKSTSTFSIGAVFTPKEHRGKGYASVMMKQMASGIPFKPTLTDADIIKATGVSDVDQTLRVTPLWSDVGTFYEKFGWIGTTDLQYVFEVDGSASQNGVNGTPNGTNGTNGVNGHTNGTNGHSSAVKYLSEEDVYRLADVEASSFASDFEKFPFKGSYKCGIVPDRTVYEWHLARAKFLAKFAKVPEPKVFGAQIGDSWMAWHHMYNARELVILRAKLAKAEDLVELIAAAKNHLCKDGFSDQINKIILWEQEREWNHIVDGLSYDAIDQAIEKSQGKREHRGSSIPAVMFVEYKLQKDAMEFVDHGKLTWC
# [2] = test system: RDW23166.1; settings: acetyl-CoA co-substrate presumed; conditions in supplement
structure (smiles),measurement,setting,value
NCCCC[C@H](N)C(=O)O [lysine],LC-MS of dansylated product,[1],confirming that LYC1 catalyzes lysine acetylation specifically with acetyl-CoA as the substrate
same,Km,[2],6.21 mM
